Laboratory results published in patent US20160168119A1, “AUTOTAXIN INHIBITORS” (Novartis AG, priority 2013, published 2016).

What follows are compounds tested against T1, Recombinant human ATX (Homo sapiens, UniProt Q13822) (assay: ATX inhibition assay (choline release, Amplex Red fluorescence)). Details: not given.
T1 construct: made in house; host or cells: human embryonic kidney (HEK) cells
Format: biochemical
Method: Reagents—LPC (oleoyl (18:1)) was purchased from Avanti Polar Lipids (Alabaster, Ala.) and solubilized in methanol to 20 mM. Amplex Red was obtained from Invitrogen Life Technologies (Paisley, UK) and dissolved in DMSO to 10 mM. Choline oxidase and horseradish peroxidase (HRP) were obtained from Sigma Aldrich (Dorset, UK) and dissolved in HBSS to 20 U/ml and 200 U/ml respectively. All reagents were stored at −20° C. in single use aliquots. All experimental measurements were performed in assay buffer made up immediately prior to use (HBSS, 0.01% BSA essentially fatty acid free).
PerkinElmer EnVision (Fluorescence Intensity/Absorbance Monochromator) or Tecan Infinite 200 PRO series plate reader was used to detect change in fluorescent intensity.
Assessing ATX inhibition—ATX activity was determined by measurement of released choline in reactions containing ATX (10 nM), choline oxidase (0.1 U/ml), HRP (100 U/ml), amplex red (50 μM) and LPC 18:1 (10 μM). Compounds of the invention were prepared as 10 point serial dilutions from 1 μM in duplicate and pre-incubated with ATX at 37° C. for 20 minutes prior to the addition of remaining reagents. The liberated choline was measured from changes in fluorescence intensity (λex 530 nm, λem 590 nm) of the product resurofin at 37° C. every 2 minutes over a 40-minute period. ATX activity was measured as a slope of the linear portion of the progress curve, typically between 14 to 24 minutes.
Data analysis—Slope data was exported to Graphpad prism (Graphpad software, San Diego, Calif.) where data was fitted to equation 1.
Y=Bottom+(Top−Bottom)/(1+10̂((LogIC50−X)*HillSlope)) Equation 1: […]
Compound `Cc1nnn(Cc2cc(C(F)(F)F)ccc2/C=C/C(=O)N(C)CCOc2ccccc2)n1` [Example 6.2, (E)-N-Methyl-3-(2-((5-methyl-2H-tetrazol-2-yl)methyl)-4-(trifluoromethyl)phenyl)-N-(2-phenoxyethyl)acrylamide] has an IC50 of 9 nM.

Same assay, conditions: ATX 10 nM, LPC 18:1 10 μM, pre-incubated 20 minutes at 37° C.; mean of n≧2; read-out: IC50
Compound `Cc1cc(CN(C)C(=O)/C=C/c2ccc(C(F)(F)F)cc2Cn2nnc(C)n2)n(C)n1` [Example 6.1, (E)-N-((1,3-Dimethyl-1H-pyrazol-5-yl)methyl)-N-methyl-3-(2-((5-methyl-2H-tetrazol-2-yl)methyl)-4-(trifluoromethyl)phenyl)acrylamide] has an IC50 of 6.9 nM.
`Cc1csc(CN(C)C(=O)/C=C/c2ccc(Cl)cc2Cn2nnc(C)n2)n1` [Example 2.2, (E)-3-(4-Chloro-2-((5-methyl-2H-tetrazol-2-yl)methyl)phenyl)-N-methyl-N-((4-methylthiazol-2-yl)methyl)acrylamide] showed an IC50 of 74 nM.
In the case of `Cc1ccc(S(=O)(=O)N2CCC(CN(C)C(=O)/C=C/c3ccc(C(F)(F)F)cc3Cn3nnc(C)n3)CC2)cc1` [Example 4.2, (E)-N-Methyl-3-(2-((5-methyl-2H-tetrazol-2-yl)methy)-4-(trifluoromethyl)phenyl)-N-((1-tosylpiperidin-4-yl)methyl)acrylamide], the IC50 is reported as 4.5 nM.
Work on `Cc1nnn(Cc2cc(C(F)(F)F)ccc2/C=C/C(=O)N(C)Cc2nc3ccccc3s2)n1` [Example 6.10, (E)-N-(Benzo[d]thiazol-2-ylmethyl)-N-methyl-3-(2-((5-methyl-2H-tetrazol-2-yl)methyl)-4-(trifluoromethyl)phenyl)acrylamide] yielded an IC50 of 12 nM.
Compound `CCN(CC(O)c1cccc(O)c1)C(=O)/C=C/c1ccc(Cl)cc1Cn1nnc(C)n1` (centres unmarked) [Example 2.5, (E)-3-(4-Chloro-2-((5-methyl-2H-tetrazol-2-yl)methyl)phenyl)-N-ethyl-N-(2-hydroxy-2-(3-hydroxyphenyl)ethyl)acrylamide] has an IC50 of 94 nM.
Work on `CCN(Cc1ccncc1)C(=O)/C=C/c1ccc(Cl)cc1Cn1nnc(C)n1` [Example 2.1, (E)-3-(4-Chloro-2-((5-methyl-2H-tetrazol-2-yl)methyl)phenyl)-N-ethyl-N-(pyridin-4-ylmethyl)acrylamide] yielded an IC50 of 64 nM.
`Cc1nnn(Cc2cc(C(F)(F)F)ccc2/C=C/C(=O)N(C)CC2CCN(Cc3ccc(F)cc3)CC2)n1` [Example 5, (E)-N-((1-(4-Fluorobenzyl)piperidin-4-yl)methyl)-N-methyl-3-(2-((5-methyl-2H-tetrazol-2-yl)methyl)-4-(trifluoromethyl)phenyl)acrylamide] was tested, and the IC50 was 13 nM.
`COc1ccc(CNC(=O)CN(C)C(=O)/C=C/c2ccc(C(F)(F)F)cc2Cn2nnc(C)n2)cc1` [Example 6.5, (E)-N-(2-((4-Methoxybenzyl)amino)-2-oxoethyl)-N-methyl-3-(2-((5-methyl-2H-tetrazol-2-yl)methyl)-4-(trifluoromethyl)phenyl)acrylamide] showed an IC50 of 16 nM.
Compound `Cc1nnn(Cc2cc(C(F)(F)F)ccc2/C=C/C(=O)N(C)CC2CCN(S(=O)(=O)C3CC3)CC2)n1` [Example 4.1, (E)-N-((1-(Cyclopropylsulfonyl)piperidin-4-yl)methyl)-N-methyl-3-(2-((5-methyl-2H-tetrazol-2-yl)methyl)-4-(trifluoromethyl)phenyl)acrylamide] has an IC50 of 4.9 nM.
`Cc1nnn(Cc2cc(Cl)ccc2/C=C/C(=O)N(C)CC2CCCO2)n1` (centres unmarked) [Example 2.7, (E)-3-(4-Chloro-2-((5-methyl-2H-tetrazol-2-yl)methyl)phenyl)-N-methyl-N-((tetrahydrofuran-2-yl)methyl)acrylamide] gave an IC50 of 183 nM.
For `CCN(CCOC)C(=O)/C=C/c1ccc(Cl)cc1Cn1nnc(C)n1` [Example 2.4, (E)-3-(4-Chloro-2-((5-methyl-2H-tetrazol-2-yl)methyl)phenyl)-N-ethyl-N-(2-methoxyethyl)acrylamide], the IC50 was 50 nM.
In the case of `Cc1nnn(Cc2cc(C(F)(F)F)ccc2/C=C/C(=O)N(C)CC2CCN(C(=O)c3ccc(F)cc3)CC2)n1` [Example 3, (E)-N-((1-(4-Fluorobenzoyl)piperidin-4-yl)methyl)-N-methyl-3-(2-((5-methyl-2H-tetrazol-2-yl)methyl)-4-(trifluoromethyl)phenyl)acrylamide], the IC50 is reported as 10 nM.
`Cc1csc(CN(C)C(=O)/C=C/c2ccc(C(F)(F)F)cc2Cn2nnc(C)n2)n1` [Example 6.3, (E)-N-Methyl-3-(2-((5-methyl-2H-tetrazol-2-yl)methyl)-4-(trifluoromethyl)phenyl)-N-((4-methylthiazol-2-yl)methyl)acrylamide] was tested, and the IC50 was 40 nM.
`Cc1nnn(Cc2cc(C(F)(F)F)ccc2/C=C/C(=O)N(C)CC2CC(=O)N(C(C)(C)C)C2)n1` (centres unmarked) [Example 6.8, (E)-N-((1-(tert-Butyl)-5-oxopyrrolidin-3-yl)methyl)-N-methyl-3-(2-((5-methyl-2H-tetrazol-2-yl)methyl)-4-(trifluoromethyl)phenyl)acrylamide] was tested, and the IC50 was 7 nM.
`CCN(C(=O)/C=C/c1ccc(C(F)(F)F)cc1Cn1nnc(C)n1)C1CCN(C(=O)OC(C)(C)C)CC1` [Example 1.2, (E)-tert-Butyl-4-(N-ethyl-3-(2-((5-methyl-2H-tetrazol-2-yl)methyl)-4-(trifluoromethyl)phenyl)acrylamido)piperidine-1-carboxylate] gave an IC50 of 20 nM.
In the case of `Cc1nnn(Cc2cc(C(F)(F)F)ccc2/C=C/C(=O)N(C)Cc2nnc(-c3ccccc3)o2)n1` [Example 6.4, (E)-N-Methyl-3-(2-((5-methyl-2H-tetrazol-2-yl)methyl)-4-(trifluoromethyl)phenyl)-N-((5-phenyl-1,3,4-oxadiazol-2-yl)methyl)acrylamide], the IC50 is reported as 13 nM.
Work on `Cc1nnn(Cc2cc(Cl)ccc2/C=C/C(=O)N(C)CC2CC(=O)N(C(C)(C)C)C2)n1` (centres unmarked) [Example 2.6, (E)-N-((1-(tert-Butyl)-5-oxopyrrolidin-3-yl)methyl)-3-(4-chloro-2-((5-methyl-2H-tetrazol-2-yl)methyl)phenyl)-N-methylacrylamide] yielded an IC50 of 52 nM.
For `Cc1nnn(Cc2cc(C(F)(F)F)ccc2/C=C/C(=O)N(C)Cc2nc(-c3ccccc3)cs2)n1` [Example 6.7, (E)-N-Methyl-3-(2-((5-methyl-2H-tetrazol-2-yl)methyl)-4-(trifluoromethyl)phenyl)-N-((4-phenylthiazol-2-yl)methyl)acrylamide], the IC50 was 6 nM.
Work on `Cc1nnn(Cc2cc(Cl)ccc2/C=C/C(=O)N(C)CC2CCN(C(=O)OC(C)(C)C)CC2)n1` [Example 1.1, (E)-tert-Butyl 4-((3-(4-chloro-2-((5-methyl-2H-tetrazol-2-yl)methyl)phenyl)-N-methylacrylamido)methyl)piperidine-1-carboxylate] yielded an IC50 of 14 nM.
For `Cc1cc(CN(C)C(=O)/C=C/c2ccc(Cl)cc2Cn2nnc(C)n2)on1` [Example 2.3, (E)-3-(4-Chloro-2-((5-methyl-2H-tetrazol-2-yl)methyl)phenyl)-N-methyl-N-((3-methylisoxazol-5-yl)methyl)acrylamide], the IC50 was 73 nM.
For `Cc1nnn(Cc2cc(C(F)(F)F)ccc2/C=C/C(=O)N(C)CCCCc2cccnc2)n1` [Example 6.6, (E)-N-Methyl-3-(2-((5-methyl-2H-tetrazol-2-yl)methyl)-4-(trifluoromethyl)phenyl)-N-(4-(pyridin-3-yl)butyl)acrylamide], the IC50 was 49 nM.
`Cc1nnn(Cc2cc(C(F)(F)F)ccc2/C=C/C(=O)N(C)Cc2nc(-c3ccccc3)no2)n1` [Example 6.9, (E)-N-Methyl-3-(2-((5-methyl-2H-tetrazol-2-yl)methyl)-4-(trifluoromethyl)phenyl)-N-((3-phenyl-1,2,4-oxadiazol-5-yl)methyl)acrylamide] was tested, and the IC50 was 5.3 nM.
